Marks after values point to notes of the source that are not given here.
What was measured:
[1] = test system: progesterone, 17-oxyprogesterone, 11-desoxycortisol and cortisol; test: Blood serum hormone levels (radioimmunoassay); format: in vivo, guinea pigs; settings: for Progesterone, blood serum level (Experiment) / Oxyprogesterone, blood serum level (Experiment) / Desoxycortisol, blood serum level (Experiment) / Cortisol, blood serum level (Experiment): oral three times 50 µg/kg
Procedure: Sensibilization of animals was done as described in example 27. Blood for hormonal level determination was sampled in animals before commencement of experiment and 18 hours after the last drug administration from 10 to 11 hours. […] A comparative hormonal state analysis was carried out by individual changes in each animal in a group. Mean parametric values expressed in nM/l, are presented by the groups in table 21.
Blood serum levels of the hormones progesterone, 17-oxyprogesterone, 11-desoxycortisol and cortisol were determined by radioimmunoassay using the Beloris company kits. Hormone concentration in samples was determined by the relation graph between the activity of a precipitated bound labelled hormone and hormone concentration in the calibration samples.

Salmonella spp. = test: Resistance of mice to Salmonella spp. infection; format: in vivo; settings: test compounds 500 µg/kg orally; for MLT: mean lifetime
Procedure: Effect of the compounds of general formula (I) on change in average lifetime of experimental animals infected with Salmonella spp.
Experiments were carried out on mongrel white mice of both sexes weighing 18-22 g. Compounds III, XLIV and the reference drug sodium nucleinate were administered orally for 3 days (a total of 6 times) prior and post infection (dosage regimen -3, -2, -1, 0, 1, 2, 3, where 0 is infection day). A 24-hour Salmonella spp. culture grown on Hottinger agar, was used for infecting. Normal saline solution was used to prepare cellular suspension. Suspension of Salmonella spp. cells was administered subcutaneously at a dose 5 x 10^8 cells per a mouse in 0.5 ml.

peritoneal macrophages = test: Activity of peritoneal macrophages (NBT reduction test); format: in vivo, mongrel white male mice; settings: for portion of active macrophages: mice, oral three days at 50 and 500 µg/kg
Procedure: Change in the activity of peritoneal macrophages (PM) as effected by the test compounds was studied.
Experiments were carried out on mongrel white male mice with initial body mass 20-22 g. Each group included 10 animals. Compounds III, VI, XLIV were dissolved in normal saline (NS). The test compounds were administered to animals orally for three days at doses 50 and 500 µg/kg. Animals of the control group were given equal volume of NS. Mice were sacrified 20 hours after the last compound administration, peritoneal cavity was washed with 1.5 ml Henks solution comprising 5 U/ml heparine. 0.1 ml of wash solution were incubated for 30 minutes at 37°C with 0.1 ml 0.2% nitroblue tetrasolium (NBT) solution, then smears were prepared. Nuclei were additionaly stained with o.1% neutral red solution. Results were expressed in percent of active cells [Klimov V.V., Kolovkina T.V. Nitroblue tetrasolium reduction test stimulated with pyrogenal. Laborotornoye delo (Laboratory matter) (1982), No 10, pp. 624-625]. […]

Human lymphocytes = test: Concanavalin A-induced blasttransformation of lymphocytes; format: cell-based
Procedure: Human lymphocytes were used for blasttransformation reaction [Kiseleva E.P., Tsveibakh A.S., Goldman E.I., Pigareva N.V. Application of a micromethod to study blasttransformation of lymphocytes in humans and animals. Immunology (1985), No 1, pp. 76-78]. 10 ml blood were collected into a sterile syringe containing heparine (to final concentration 25 U/ml) and incubated to sediment red blood cells (60-90 minutes at 37°C). Leukocytic suspension layer was selected and the number of nucleated cells was calculated. The cells obtained in such a way were incubated for 72 hours in a humid atmosphere with 5% CO2 at 37°C in the cells of plates for immune reactions in RPMI-1640 medium comprising 15% fetal calf serum, […] Neomycine (incubation mixture volume 0.15 ml). 5 x 10^5 cells were introduced into each plate cell. Incubation was carried out in the presence or absence of mitogen phytohemagglutinin (PHA) (Sigma) […] or concanavalin A (ConA) (Sigma) […] with or without addition of the test compounds at different concentrations. […] H^3 -thymidine in RPMI-1640 medium were introduced into each cell 16 hours before incubation termination. Following culturing period termination, 0.15 ml cellular suspension from each plate cell were transferred on the FN-8 paper filters. Filters were dried, washed two times with normal saline for 5 minutes then twice with TCA for 60 minutes. After drying, radioactivity of samples was calculated on a counter in the ZhS-8 scintillator. Stimulation index was calculated as ratio of sample radioactivity with mitogen to sample radioactivity without mitogen.

[2] = Day 1 following infection, regimen -3..3
[3] = score 0 (no formazane inclusions, inactive PM), 50 µg/kg orally for three days
[4] = score 0 (no formazane inclusions, inactive PM), 500 µg/kg orally for three days
[5] = score 1 (single formazane inclusions), 50 µg/kg orally for three days
[6] = score 1 (single formazane inclusions), 500 µg/kg orally for three days
[7] = score 2 (inclusions fill up to 1/3 of PM cytoplasm), 50 µg/kg orally for three days
[8] = score 2 (inclusions fill up to 1/3 of PM cytoplasm), 500 µg/kg orally for three days
[9] = score 3 (inclusions fill up to 1/2 of PM cytoplasm), 50 µg/kg orally for three days
[10] = score 3 (inclusions fill up to 1/2 of PM cytoplasm), 500 µg/kg orally for three days

O=C(O)CCCC(=O)NCCc1c[nH]cn1 [compound III, N-GLUTARYLHISTAMINE]
hormonal state changes ([1]; intact and sensitized guinea pigs, compared with compound XLIV): the same hormonal state changes were observed
Number of dead mice (Salmonella spp.; [2]): 1
Number of dead mice (Salmonella spp.; Day 2 following infection): 1*^1
Number of dead mice (Salmonella spp.; Day 3 following infection): 1
Number of dead mice (Salmonella spp.; Day 4 following infection): 2
Number of dead mice (Salmonella spp.; Day 5 following infection): 1
Number of dead mice (Salmonella spp.; Day 6 following infection): 2
Number of dead mice (Salmonella spp.; Day 7 following infection): 2
MLT (Salmonella spp.): 4.5 ± 0.65 days
portion of active macrophages (peritoneal macrophages): pronounced in study of the both substance doses
Activity of macrophages, percent (peritoneal macrophages; [3]): 11.6 ± 2.8%
Activity of macrophages, percent (peritoneal macrophages; [4]): 12.8 ± 1.3%
Activity of macrophages, percent (peritoneal macrophages; [5]): 27.5 ± 2.5%
Activity of macrophages, percent (peritoneal macrophages; [6]): 31.3 ± 2.3%
Activity of macrophages, percent (peritoneal macrophages; [7]): 44.6 ± 1.9%
Activity of macrophages, percent (peritoneal macrophages; [8]): 46.0 ± 2.6%
Activity of macrophages, percent (peritoneal macrophages; [9]): 15.8 ± 3.3%
Activity of macrophages, percent (peritoneal macrophages; [10]): 10.9 ± 2.1%
blasttranformation reaction of human lymphocytes induced by ConA (Human lymphocytes): stimulating effect
Radioactivity, number of pulses for 20 seconds (Human lymphocytes; 10^-3 M/l, +ConA): 680 ± 82 number of pulses for 20 seconds
Stimulation index (Human lymphocytes; 10^-3 M/l, +ConA): 2.06
Radioactivity, number of pulses for 20 seconds (Human lymphocytes; 10^-3 M/l, no mitogen): 330 ± 105 number of pulses for 20 seconds
Radioactivity, number of pulses for 20 seconds (Human lymphocytes; 10^-4 M/l, +ConA): 1197±97 number of pulses for 20 seconds
Stimulation index (Human lymphocytes; 10^-4 M/l, +ConA): 4.37
Radioactivity, number of pulses for 20 seconds (Human lymphocytes; 10^-4 M/l, no mitogen): 274 ± 28 number of pulses for 20 seconds
Radioactivity, number of pulses for 20 seconds (Human lymphocytes; 10^-5 M/l, +ConA): 1562 ± 134 number of pulses for 20 seconds
Stimulation index (Human lymphocytes; 10^-5 M/l, +ConA): 3.34
Radioactivity, number of pulses for 20 seconds (Human lymphocytes; 10^-5 M/l, no mitogen): 467 ± 109 number of pulses for 20 seconds
Radioactivity, number of pulses for 20 seconds (Human lymphocytes; 10^-6 M/l, +ConA): 1922 ± 248 number of pulses for 20 seconds
Stimulation index (Human lymphocytes; 10^-6 M/l, +ConA): 4.71
Radioactivity, number of pulses for 20 seconds (Human lymphocytes; 10^-6 M/l, no mitogen): 408 ± 75 number of pulses for 20 seconds
Radioactivity, number of pulses for 20 seconds (Human lymphocytes; 10^-7 M/l, +ConA): 1483 ± 67 number of pulses for 20 seconds
Stimulation index (Human lymphocytes; 10^-7 M/l, +ConA): 3.10
Radioactivity, number of pulses for 20 seconds (Human lymphocytes; 10^-7 M/l, no mitogen): 478 ± 35 number of pulses for 20 seconds
Radioactivity, number of pulses for 20 seconds (Human lymphocytes; 10^-8 M/l, +ConA): 849 ± 133 number of pulses for 20 seconds
Stimulation index (Human lymphocytes; 10^-8 M/l, +ConA): 3.63
Radioactivity, number of pulses for 20 seconds (Human lymphocytes; 10^-8 M/l, no mitogen): 234 ± 36 number of pulses for 20 seconds

γ-L-glutamylhistamine [compound XLIV]
Progesterone, blood serum level (Experiment) ([1]; intact guinea pigs, individual control 2.53): 2.87 nM/l
Oxyprogesterone, blood serum level (Experiment) ([1]; intact guinea pigs, individual control 2.83): 3.88* nM/l
Desoxycortisol, blood serum level (Experiment) ([1]; intact guinea pigs, individual control 20.8): 30.95* nM/l
Cortisol, blood serum level (Experiment) ([1]; intact guinea pigs, individual control 1474.5): 1891.5* nM/l
Progesterone, blood serum level (Experiment) ([1]; sensitized guinea pigs, individual control 1.73): 5.08** nM/l
Oxyprogesterone, blood serum level (Experiment) ([1]; sensitized guinea pigs, individual control 1.79): 2.31* nM/l
Desoxycortisol, blood serum level (Experiment) ([1]; sensitized guinea pigs, individual control 28.9): 33.5 nM/l
Cortisol, blood serum level (Experiment) ([1]; sensitized guinea pigs, individual control 1910.3): 1997.0 nM/l
Number of dead mice (Salmonella spp.; [2]): 3*^2
Number of dead mice (Salmonella spp.; Day 3 following infection): 1
Number of dead mice (Salmonella spp.; Day 5 following infection): 5
Number of dead mice (Salmonella spp.; Day 6 following infection): 2
Number of dead mice (Salmonella spp.; Day 7 following infection): 1
MLT (Salmonella spp.): 4.0 ± 0.73 days
portion of active macrophages (peritoneal macrophages): more pronounced at a dose 500 µg/kg
Activity of macrophages, percent (peritoneal macrophages; [3]): 23.9 ± 4.4%
Activity of macrophages, percent (peritoneal macrophages; [4]): 17.4 ± 2.5%
Activity of macrophages, percent (peritoneal macrophages; [5]): 37.3 ± 3.4%
Activity of macrophages, percent (peritoneal macrophages; [6]): 37.3 ± 3.9%
Activity of macrophages, percent (peritoneal macrophages; [7]): 34.9 ± 5.9%
Activity of macrophages, percent (peritoneal macrophages; [8]): 35.8 ± 4.4%
Activity of macrophages, percent (peritoneal macrophages; [9]): 5.4 ± 2.0%
Activity of macrophages, percent (peritoneal macrophages; [10]): 9.4 ± 2.9%
blasttranformation reaction of human lymphocytes induced by ConA (Human lymphocytes): stimulating effect
Radioactivity, number of pulses for 20 seconds (Human lymphocytes; 10^-3 M/l, +ConA): 1072 ± 135 number of pulses for 20 seconds
Stimulation index (Human lymphocytes; 10^-3 M/l, +ConA): 3.01
Radioactivity, number of pulses for 20 seconds (Human lymphocytes; 10^-3 M/l, no mitogen): 356±51 number of pulses for 20 seconds
Radioactivity, number of pulses for 20 seconds (Human lymphocytes; 10^-4 M/l, +ConA): 1259 ± 90 number of pulses for 20 seconds
Stimulation index (Human lymphocytes; 10^-4 M/l, +ConA): 3.91
Radioactivity, number of pulses for 20 seconds (Human lymphocytes; 10^-4 M/l, no mitogen): 322 ± 38 number of pulses for 20 seconds
Radioactivity, number of pulses for 20 seconds (Human lymphocytes; 10^-5 M/l, +ConA): 1695 ± 139 number of pulses for 20 seconds
Stimulation index (Human lymphocytes; 10^-5 M/l, +ConA): 5.00
Radioactivity, number of pulses for 20 seconds (Human lymphocytes; 10^-5 M/l, no mitogen): 339 ± 32 number of pulses for 20 seconds
Radioactivity, number of pulses for 20 seconds (Human lymphocytes; 10^-6 M/l, +ConA): 1963 ± 205 number of pulses for 20 seconds
Stimulation index (Human lymphocytes; 10^-6 M/l, +ConA): 6.96
Radioactivity, number of pulses for 20 seconds (Human lymphocytes; 10^-6 M/l, no mitogen): 289 ± 52 number of pulses for 20 seconds
Radioactivity, number of pulses for 20 seconds (Human lymphocytes; 10^-7 M/l, +ConA): 1786 ± 241 number of pulses for 20 seconds
Stimulation index (Human lymphocytes; 10^-7 M/l, +ConA): 7.38
Radioactivity, number of pulses for 20 seconds (Human lymphocytes; 10^-7 M/l, no mitogen): 242 ± 19 number of pulses for 20 seconds
Radioactivity, number of pulses for 20 seconds (Human lymphocytes; 10^-8 M/l, +ConA): 971 ± 44 number of pulses for 20 seconds
Stimulation index (Human lymphocytes; 10^-8 M/l, +ConA): 4.17
Radioactivity, number of pulses for 20 seconds (Human lymphocytes; 10^-8 M/l, no mitogen): 233 ± 54 number of pulses for 20 seconds

Source: patent EP2229935A1, “Peptide derivatives or pharmaceutically acceptable salts thereof, method for producing the same, use of said derivatives and pharmaceutical composition” (Nebolsin, Vladimir Evgenievich, priority 1997, dated 1999)
